Drawing on ChEMBL document CHEMBL1136564, “Sordaricin antifungal agents” (2003), this text covers MIC for 28 compounds.

The subject of one experiment is Nakaseomyces glabratus. In words: Minimum inhibitory concentration required to inhibit 90 to 100% visible growth of Candida glabrata. Type of experiment: functional.
The subject of a further experiment is Candida albicans. In words: Minimum inhibitory concentration to inhibit 90 to 100% visible growth of Candida albicans. The experiment is classed as functional.

Converted amounts (≈) assume the structure as drawn.

What is called MIC is the smallest concentration in the dilution series that meets the test's criterion for growth inhibition. A higher MIC goes with a need for much substance.

In the case of `CC(C)C1=CC2CC3(C=O)C4CC[C@@H](C)C4CC2(CCOC(=O)CSc2ccccc2)C13C(=O)O` (stereo partly specified), the results for the minimum inhibitory concentration (MIC) with Nakaseomyces glabratus and against Candida albicans were 32 µg/mL (≈ 64.4 µM) and 0.5 µg/mL (≈ 1.01 µM), respectively.

With `CC(C)C1=CC2CC3(C=O)C4CC[C@@H](C)C4CC2(CCOC(=O)c2ccc([N+](=O)[O-])cc2Cl)C13C(=O)O` (stereo partly specified), the figures for the minimal inhibitory concentration (MIC) with Nakaseomyces glabratus and with Candida albicans were greater than 128 µg/mL and 128 µg/mL (≈ 242 µM), respectively.

As for `CC(C)C1=CC2CC3(C=O)C4CC[C@@H](C)C4CC2(CCOC(=O)c2cccs2)C13C(=O)O` (stereo partly specified), the MIC against Nakaseomyces glabratus and against Candida albicans was greater than 128 µg/mL throughout.

For `CC(C)C1=CC2CC3(C=O)C4CC[C@@H](C)C4CC2(CCOC(=O)CCc2c[nH]c4ccccc24)C13C(=O)O` (stereo partly specified), the MIC with Nakaseomyces glabratus and with Candida albicans was greater than 128 µg/mL throughout.

Regarding `CC(C)C1=CC2CC3(C=O)[C@@H]4CC[C@@H](C)[C@H]4CC2(C(O)C#CC(C)(C)C)[C@]13C(=O)O` (stereo partly specified), the MIC against Nakaseomyces glabratus and against Candida albicans was 128 µg/mL (≈ 310 µM) each time.

Take `CC(C)C1=CC2CC3(C=O)C4CC[C@@H](C)C4CC2(CCOC(=O)c2ccc(S(N)(=O)=O)cc2)C13C(=O)O` (stereo partly specified): the minimal inhibitory concentration (MIC) in the experiment on Nakaseomyces glabratus and against Candida albicans was greater than 128 µg/mL throughout.

Regarding `CC(C)C1=CC2CC3(C=O)C4CC[C@@H](C)C4CC2(CCOC(=O)[C@H](NC(=O)OC(C)(C)C)c2ccccc2)C13C(=O)O` (stereo partly specified), the MIC is greater than 128 µg/mL in the experiment on Nakaseomyces glabratus and 4 µg/mL (≈ 6.9 µM) in the experiment with Candida albicans.

As for `CC(C)C1=CC2CC3(C=O)[C@@H]4CC[C@@H](C)[C@H]4CC2(C(O)CCc2ccccc2)[C@]13C(=O)O` (stereo partly specified), the MIC in the experiment with Nakaseomyces glabratus and against Candida albicans was greater than 128 µg/mL each time.

Regarding `CC(C)C1=CC2CC3(C=O)C4CC[C@@H](C)C4CC2(CCOC(=O)[C@@H]2CCC(=O)N2)C13C(=O)O` (stereo partly specified), the MIC with Nakaseomyces glabratus and in the experiment with Candida albicans was greater than 128 µg/mL in each case.

Take `CC(C)C1=CC2CC3(C=O)C4CC[C@@H](C)C4CC2(CCOC(=O)c2ccc(Cl)cc2)C13C(=O)O` (stereo partly specified): the MIC with Nakaseomyces glabratus is greater than 128 µg/mL; with Candida albicans, 4 µg/mL (≈ 8.25 µM).

`CC(C)C1=CC2CC3(C=O)C4CC[C@@H](C)C4CC2(CCOC(=O)Cc2csc4ccccc24)C13C(=O)O` (stereo partly specified): the MIC is greater than 128 µg/mL in the experiment on Nakaseomyces glabratus and 8 µg/mL (≈ 15.4 µM) in the experiment on Candida albicans.

In the case of `CC(C)C1=CC2CC3(C=O)C4CC[C@@H](C)C4CC2(CCOC(=O)c2cnc(O)nc2O)C13C(=O)O` (stereo partly specified), the MIC in the experiment on Nakaseomyces glabratus and with Candida albicans was greater than 128 µg/mL each time.

Consider `CC(C)C1=CC2CC3(C=O)C4CC[C@@H](C)C4CC2(CCOC(=O)[C@H](C)NC(=O)OC(C)(C)C)C13C(=O)O` (stereo partly specified), for which the MIC in the experiment on Nakaseomyces glabratus was greater than 128 µg/mL; in the experiment with Candida albicans, 32 µg/mL (≈ 61.8 µM).

As to `CC(=O)CCC(=O)OCCC12CC3C(CC[C@H]3C)C3(C=O)CC1C=C(C(C)C)C32C(=O)O` (stereo partly specified), the results for the MIC in the experiment on Nakaseomyces glabratus and in the experiment with Candida albicans were greater than 128 µg/mL and 8 µg/mL (≈ 18 µM), respectively.

As for `CC(C)=CC(=O)OCCC12CC3C(CC[C@H]3C)C3(C=O)CC1C=C(C(C)C)C32C(=O)O` (stereo partly specified), the minimal inhibitory concentration (MIC) was found to be 16 µg/mL (≈ 37.3 µM) in the experiment with Nakaseomyces glabratus and 0.5 µg/mL (≈ 1.17 µM) with Candida albicans.

With `CC(C)C1=CC2CC3(C=O)C4CC[C@@H](C)C4CC2(CCOC(=O)c2ccc(I)cc2)C13C(=O)O` (stereo partly specified), the minimal inhibitory concentration (MIC) against Nakaseomyces glabratus is greater than 128 µg/mL; with Candida albicans, 2 µg/mL (≈ 3.47 µM).

Take `CC(C)C1=CC2CC3(C=O)C4CC[C@@H](C)C4CC2(CCOC(=O)c2cncc(Br)c2)C13C(=O)O` (stereo partly specified): the results for the MIC against Nakaseomyces glabratus and against Candida albicans were greater than 128 µg/mL and 4 µg/mL (≈ 7.54 µM), respectively.

With `CC(C)C1=CC2CC3(C=O)C4CC[C@@H](C)C4CC2(CCOC(=O)c2cccc(C(=O)O)n2)C13C(=O)O` (stereo partly specified), the MIC in the experiment with Nakaseomyces glabratus and in the experiment with Candida albicans was greater than 128 µg/mL throughout.

As for `C=Cc1ccc(C(=O)OCCC23CC4C(CC[C@H]4C)C4(C=O)CC2C=C(C(C)C)C43C(=O)O)cc1` (stereo partly specified), the MIC in the experiment on Nakaseomyces glabratus is greater than 128 µg/mL; against Candida albicans it was 4 µg/mL (≈ 8.39 µM).

For `CC(C)C1=CC2CC3(C=O)C4CC[C@@H](C)C4CC2(CCOC(=O)c2cccc(C#N)c2)C13C(=O)O` (stereo partly specified), the MIC with Nakaseomyces glabratus is greater than 128 µg/mL; against Candida albicans it was 1 µg/mL (≈ 2.1 µM).

In the case of `CC(C)C1=CC2CC3(C=O)C4CC[C@@H](C)C4CC2(CCOC(=O)Cc2ccco2)C13C(=O)O` (stereo partly specified), the minimal inhibitory concentration (MIC) in the experiment on Nakaseomyces glabratus worked out at 64 µg/mL (≈ 141 µM); in the experiment on Candida albicans it was 2 µg/mL (≈ 4.4 µM).

For the compound `CC(C)C1=CC2CC3(C=O)[C@@H]4CC[C@@H](C)[C@H]4CC2(C(=O)C#CC(C)(C)C)[C@]13C(=O)O`, the MIC against Nakaseomyces glabratus and in the experiment with Candida albicans was greater than 128 µg/mL each time.

With `CC(C)C1=CC2CC3(C=O)C4CC[C@@H](C)C4CC2(CCOC(=O)c2cc[n+]([O-])cc2)C13C(=O)O` (stereo partly specified), the minimal inhibitory concentration (MIC) against Nakaseomyces glabratus and against Candida albicans was greater than 128 µg/mL throughout.

As to `CC(=O)OCC(=O)OCCC12CC3C(CC[C@H]3C)C3(C=O)CC1C=C(C(C)C)C32C(=O)O` (stereo partly specified), the MIC against Nakaseomyces glabratus and against Candida albicans was greater than 128 µg/mL in each case.

As to `CC(C)C1=CC2CC3(C=O)C4CC[C@@H](C)C4CC2(CCOC(=O)c2cccnc2)C13C(=O)O` (stereo partly specified), the MIC against Nakaseomyces glabratus was greater than 128 µg/mL; against Candida albicans, 16 µg/mL (≈ 35.4 µM).

In the case of `CC(C)C1=CC2CC3(C=O)C4CC[C@@H](C)C4CC2(CCOC(=O)c2cc(C(=O)O)[nH]n2)C13C(=O)O` (stereo partly specified), the MIC against Nakaseomyces glabratus and against Candida albicans was greater than 128 µg/mL in each case.

Turning to `CC(C)C1=CC2CC3(C=O)C4CC[C@@H](C)C4CC2(CCOC(=O)c2ccc4c(c2)OCO4)C13C(=O)O` (stereo partly specified), the MIC in the experiment with Nakaseomyces glabratus was greater than 128 µg/mL; in the experiment with Candida albicans, 2 µg/mL (≈ 4.04 µM).

With `CC(C)C1=CC2CC3(C=O)C4CC[C@@H](C)C4CC2(CCOC(=O)CCC(=O)O)C13C(=O)O` (stereo partly specified), the MIC was greater than 128 µg/mL against Nakaseomyces glabratus and less than 128 µg/mL with Candida albicans.
